Measured values published in patent US11464749B2, “Bismuth-thiol compositions and methods of use” (Microbion Corporation, priority 2018, dated 2022).
Like-named read-outs stand apart in the source and are kept apart here.

Experiments:
E. faecium = assay: Broth microdilution MIC (Example 11); settings: VRE vanA Lev^R Cip^R Ery^R
Pseudomonas aeruginosa [1] = assay: Broth microdilution MIC (Example 11)
Acinetobacter baumannii = assay: Broth microdilution MIC (Example 11)
E. faecalis = assay: Broth microdilution MIC (Example 11); settings: VRE Lev^R Cip^R Ery^R
Pseudomonas aeruginosa [2] = settings: P. aeruginosa MMX 103 (ATCC 27853); CLSI QC ranges shown in parenthesis; cited from earlier work
Escherichia coli [3] = settings: E. coli MMX 102 (ATCC 25922); CLSI QC ranges shown in parenthesis; cited from earlier work
M. abscessus complex = assay: MIC against CF bacterial strains (Example 5); assay type: cell-based, Mycobacterium abscessus; settings: Mycobacteroides abscessus, read-out: MIC
Protocol: A range of CF-isolated strains of Mycobacterium avium and Mycobacterium abscessus were included; which allows for understanding of the activity against non-tubercular Mycobacteria (NTM). Two distinct bismuth-thiol compounds were evaluated, including BisEDT and BisBDT. […] The CF-isolates of greater clinical relevance, including both M abscessus spp. and Burkholderia spp., were both consistently found to be much more susceptible to BisEDT and BisBDT.

S. aureus ATCC 29213 = settings: control strain ATCC 29213; per CLSI M100-S24 or provided by Microbion; cited from earlier work
[4] = test system: Staphylococcus aureus (MRSA); assay: Broth microdilution MIC (Example 11)
Enterobacter cloacae = assay: Broth microdilution MIC (Example 11); settings: ATCCBAA2468
Escherichia coli [5] = assay: Broth microdilution MIC (Example 11)
Klebsiella pneumoniae = assay: Broth microdilution MIC (Example 11)
S. pyogenes = assay: Broth microdilution MIC (Example 11); settings: Streptococcus pyogenes
S. pneumoniae = assay: Broth microdilution MIC (Example 11); settings: Streptococcus pneumoniae
S. agalactiae = assay: Broth microdilution MIC (Example 11); settings: Streptococcus agalactiae
[6] = test system: vancomycin-intermediate Staphylococcus aureus (VISA); assay: Broth microdilution MIC (Example 12); settings: Staphylococcus aureus, NRS13 / VISA, read-out: MIC values
Haemophilus influenzae = assay: Broth microdilution MIC against Haemophilus influenzae clinical isolates; settings: Haemophilus influenzae
[7] = ATCC29213|MRSA|MSSA, S. aureus MMX 101 (ATCC 29213), QC, MSSA
[8] = MRSA, S. aureus MMX 5373, MRSA Lev^R Cip^R CC^R Ery^R Ox^R
[9] = MRSA, S. aureus MMX 6311, MRSA Lev^R Cip^R CC^R Ery^R Ox^R
[10] = MRSA, S. aureus MMX 9203, MRSA Lev^R Cip^R Ery^R Ox^R
[11] = MRSA, S. aureus MMX 9204, MRSA Lev^R Cip^R Ery^R Ox^R
[12] = MRSA, S. aureus MMX 9205, MRSA Lev^R Cip^R CC^R Ery^R Ox^R
[13] = Pseudomonas aeruginosa, ATCC27853, P. aeruginosa MMX 103 (ATCC 27853), QC
[14] = Pseudomonas aeruginosa, P. aeruginosa MMX 1381, MDR, Lev^R, Cip^R, MEM^R, CAZ^R
[15] = Pseudomonas aeruginosa, P. aeruginosa MMX 2562, MDR, Lev^R, Cip^R, MEM^R, CAZ^R
[16] = Pseudomonas aeruginosa, P. aeruginosa MMX 3991, MDR, Lev^R, Cip^R, MEM^R, CAZ^R
[17] = Pseudomonas aeruginosa, P. aeruginosa MMX 4654, IMP-7, Lev^R, Cip^R, MEM^R, CAZ^R
[18] = Pseudomonas aeruginosa, P. aeruginosa MMX 4697, VIM-2, Lev^R, Cip^R, MEM^R, CAZ^R
[19] = Acinetobacter baumannii, A. baumannii MMX 2592, MDR, Lev^R, Cip^R, MEM^R, CAZ^R, Gm^R
[20] = Acinetobacter baumannii, A. baumannii MMX 2593, MDR, Lev^R, Cip^R, MEM^R, CAZ^R, Gm^R
[21] = Acinetobacter baumannii, A. baumannii MMX 3372, MDR, Cip^R, MEM^I, CAZ^I
[22] = Acinetobacter baumannii, A. baumannii MMX 3373, Sensitive
[23] = Acinetobacter baumannii, NCTC13304, A. baumannii MMX 4651 (NCTC 13304), MDR, OXA-27, Lev^R, Cip^R, MEM^R, CAZ^R, Gm^I
[24] = ATCC25922, E. coli MMX 102 (ATCC 25922), QC
[25] = ATCCBAA2469, E. coli MMX 5980 (ATCC BAA-2469), NDM-1, Lev^R, MEM^R, CAZ^R, Gm^R
[26] = E. coli MMX 8423, ESBL, Lev^R, CAZ^R, Gm^R
[27] = E. coli MMX 8425, ESBL, Lev^R, CAZ^R, Gm^R
[28] = Enterococcus faecalis, VRE, E. faecalis MMX 8960
[29] = Enterococcus faecalis, VRE, E. faecalis MMX 8961
[30] = Enterococcus faecalis, VRE, E. faecalis MMX 8962
[31] = K. pneumoniae MMX 4622, KPC-2, MEM^R, CAZ^R
[32] = K. pneumoniae MMX 4623, KPC-2, MEM^R, CAZ^R, GM^R
[33] = K. pneumoniae MMX 4653, KPC-3, Lev^R, MEM^R, CAZ^R
[34] = K. pneumoniae MMX 4683, KPC-2, Lev^R, MEM^R, CAZ^R
[35] = K. pneumoniae MMX 4684, ESBL, MEM^R
[36] = K. pneumoniae MMX 4685, ESBL, Lev^R, MEM^R, CAZ^R
[37] = K. pneumoniae MMX 4694, KPC-3, Lev^R, MEM^R, CAZ^R
[38] = K. pneumoniae MMX 5979, NDM-1, Lev^R, MEM^R, CAZ^R, Gm^R

Gentamicin
(0.5-2) μg/mL: CLSI QC range of MIC (Pseudomonas aeruginosa [2])
8 µg/mL: MIC (Pseudomonas aeruginosa [1]; P. aeruginosa MMX 1381, MDR, Lev^R, Cip^R, MEM^R, CAZ^R) | MIC (Pseudomonas aeruginosa [1]; P. aeruginosa MMX 2562, MDR, Lev^R, Cip^R, MEM^R, CAZ^R) | MIC (Acinetobacter baumannii; A. baumannii MMX 4651 (NCTC 13304), MDR, OXA-27, Lev^R, Cip^R, MEM^R, CAZ^R, Gm^I) | MIC (E. faecalis; E. faecalis MMX 8961)
0.12 µg/mL: MIC (Acinetobacter baumannii; A. baumannii MMX 3373, Sensitive)
4 µg/mL: MIC (Pseudomonas aeruginosa [1]; P. aeruginosa MMX 3991, MDR, Lev^R, Cip^R, MEM^R, CAZ^R) | MIC (Pseudomonas aeruginosa [1]; P. aeruginosa MMX 4697, VIM-2, Lev^R, Cip^R, MEM^R, CAZ^R)
(0.25-1) μg/mL: CLSI QC range of MIC (Escherichia coli [3])
>64 µg/mL: MIC (E. faecium; E. faecium MMX 485) | MIC (E. faecium; E. faecium MMX 752) | MIC (Pseudomonas aeruginosa [1]; P. aeruginosa MMX 4654, IMP-7, Lev^R, Cip^R, MEM^R, CAZ^R) | MIC (Acinetobacter baumannii; A. baumannii MMX 2592, MDR, Lev^R, Cip^R, MEM^R, CAZ^R, Gm^R) | MIC (Acinetobacter baumannii; A. baumannii MMX 2593, MDR, Lev^R, Cip^R, MEM^R, CAZ^R, Gm^R) | MIC (E. faecalis; E. faecalis MMX 8960) | MIC (E. faecalis; E. faecalis MMX 8962)
0.5 µg/mL: MIC (Acinetobacter baumannii; A. baumannii MMX 3372, MDR, Cip^R, MEM^I, CAZ^I)
1 µg/mL: MIC (Pseudomonas aeruginosa [1]; P. aeruginosa MMX 103 (ATCC 27853), QC)

CC[C@H]1OC(=O)[C@H](C)[C@@H](O[C@H]2C[C@@](C)(OC)[C@@H](O)[C@H](C)O2)[C@H](C)[C@@H](O[C@@H]2O[C@H](C)C[C@H](N(C)C)[C@H]2O)[C@](C)(OC)C[C@@H](C)C(=O)[C@H](C)[C@@H](O)[C@]1(C)O [Clarithromycin, reference compound]
2 µg/mL: MIC (M. abscessus complex; AMT153-9, M abscessus/massiliense complex) | MIC (M. abscessus complex; AMT0493-2, M abscessus/massiliense complex, Amikacin resistant)
0.25 (0.12-0.5) mcg/mL: Expected MIC: goal (acceptable range) (S. aureus ATCC 29213)
1 µg/mL: MIC (M. abscessus complex; AMT0130-8, M abscessus/massiliense complex)
> 32 µg/mL: MIC (M. abscessus complex; ATCC19977, ATCC 19977, M abscessus/massiliense complex, Macrolide resistant (inducible))

CC(C)(O/N=C(\C(=O)N[C@@H]1C(=O)N2C(C(=O)[O-])=C(C[n+]3ccccc3)CS[C@H]12)c1csc(N)n1)C(=O)O [Ceftazidime]
> 32 µg/mL: MIC [4, 8] | MIC [4, 9] | MIC [4, 10] | MIC [4, 11] | MIC [4, 12] | MIC (Enterobacter cloacae) | MIC (Pseudomonas aeruginosa [1]; [15]) | MIC (Pseudomonas aeruginosa [1]; [17]) | MIC (Acinetobacter baumannii; [23]) | MIC (Escherichia coli [5]; [25]) | MIC (E. faecalis; [28]) | MIC (E. faecalis; [29]) | MIC (E. faecalis; [30]) | MIC (Klebsiella pneumoniae; [31]) | MIC (Klebsiella pneumoniae; [32]) | MIC (Klebsiella pneumoniae; [33]) | MIC (Klebsiella pneumoniae; [34]) | MIC (Klebsiella pneumoniae; [36]) | MIC (Klebsiella pneumoniae; [37]) | MIC (Klebsiella pneumoniae; [38])
(1-4) μg/mL: CLSI QC range of MIC (Pseudomonas aeruginosa [2])
32 µg/mL: MIC (Pseudomonas aeruginosa [1]; [14]) | MIC (Pseudomonas aeruginosa [1]; [18]) | MIC (Acinetobacter baumannii; [19]) | MIC (Acinetobacter baumannii; [20]) | MIC (Escherichia coli [5]; [26])
16 µg/mL: MIC (Pseudomonas aeruginosa [1]; [16]) | MIC (Acinetobacter baumannii; [21]) | MIC (Escherichia coli [5]; E. coli MMX 8424, ESBL, CAZ^R) | MIC (Escherichia coli [5]; [27])
0.12 µg/mL: MIC (Escherichia coli [5]; [24])
4 µg/mL: MIC (Acinetobacter baumannii; [22])
8 µg/mL: MIC [4, 7] | MIC (Klebsiella pneumoniae; [35])
(0.06-0.5) μg/mL: CLSI QC range of MIC (Escherichia coli [3])
2 µg/mL: MIC (Pseudomonas aeruginosa [1]; [13])

C[C@H]1COc2c(N3CCN(C)CC3)c(F)cc3c(=O)c(C(=O)O)cn1c23 [Levofloxacin, reference compound]
0.25 µg/mL: MIC (S. pyogenes; S. pyogenes MMX 3820, ERY^R CLI^R) | MIC (S. pyogenes; S. pyogenes MMX 5091, ERY^R CC^R)
1 µg/mL: MIC (S. pneumoniae; S. pneumoniae MMX 937, Mem^R SXT^R CC^R Ery^R Pen^R) | MIC (S. pneumoniae; S. pneumoniae MMX 3959, CC^R Ery^R) | MIC (S. pneumoniae; S. pneumoniae MMX 5440, Mem^R SXT^R CC^R Ery^R Pen^R) | MIC (S. pneumoniae; S. pneumoniae MMX 5445, Mem^R SXT^R CC^R Ery^R Pen^R) | MIC (S. pneumoniae; S. pneumoniae MMX 8133, Mem^R SXT^R CC^R Ery^R Pen^R) | MIC (S. agalactiae; S. agalactiae MMX 3743, ERY^R CC^R) | MIC (S. agalactiae; S. agalactiae MMX 4079, ERY^R CC^R Pen^R MEM^R) | MIC (Pseudomonas aeruginosa [1]; [13]) | MIC (Acinetobacter baumannii; [21]) | MIC (Klebsiella pneumoniae; [31]) | MIC (Klebsiella pneumoniae; [32])
0.06 µg/mL: MIC (Escherichia coli [5]; E. coli MMX 8424, ESBL, CAZ^R)
0.015 µg/mL: MIC (Escherichia coli [5]; [24]) | MIC50 (Haemophilus influenzae) | MIC90 (Haemophilus influenzae)
(0.008-0.06)^1 μg/mL: CLSI QC range of MIC (Escherichia coli [3])
> 64 µg/mL: MIC [4, 12] | MIC (Klebsiella pneumoniae; [34]) | MIC (Klebsiella pneumoniae; [38])
0.5 µg/mL: MIC (S. pyogenes; S. pyogenes MMX 3068, Ery^R) | MIC (S. pyogenes; S. pyogenes MMX 3929, ERY^R CC^R) | MIC (S. pneumoniae; ATCC49619, S. pneumoniae MMX 6837 (ATCC 49619), QC) | MIC (S. agalactiae; S. agalactiae MMX 3741, ERY^R CC^R) | MIC (S. agalactiae; S. agalactiae MMX 4077, ERY^R CC^R) | MIC (S. agalactiae; S. agalactiae MMX 4086, ERY^R CC^R)
0.12 µg/mL: MIC [4, 7] | MIC (S. pyogenes; S. pyogenes MMX 3919, ERY^R) | MIC (Acinetobacter baumannii; [22])
64 µg/mL: MIC (Enterobacter cloacae) | MIC (Pseudomonas aeruginosa [1]; [14]) | MIC (Pseudomonas aeruginosa [1]; [15]) | MIC (Pseudomonas aeruginosa [1]; [16]) | MIC (Pseudomonas aeruginosa [1]; [17]) | MIC (Acinetobacter baumannii; [19]) | MIC (E. faecalis; [29]) | MIC (E. faecalis; [30]) | MIC (Klebsiella pneumoniae; [33]) | MIC (Klebsiella pneumoniae; [37])
(0.5-4) μg/mL: CLSI QC range of MIC (Pseudomonas aeruginosa [2])
0.03 µg/mL: MIC (Klebsiella pneumoniae; [35])
8 µg/mL: MIC (S. pneumoniae; S. pneumoniae MMX 880, Lev^R SXT^R CC^R Ery^R Pen^R) | MIC (Acinetobacter baumannii; [23])
≥ 4 µg/mL: MIC [6]
32 µg/mL: MIC [4, 8] | MIC [4, 9] | MIC (Pseudomonas aeruginosa [1]; [18]) | MIC (Acinetobacter baumannii; [20]) | MIC (E. faecalis; [28]) | MIC (Klebsiella pneumoniae; [36])
4 µg/mL: MIC [4, 10] | MIC [4, 11]
16 µg/mL: MIC (Escherichia coli [5]; [25]) | MIC (Escherichia coli [5]; [26]) | MIC (Escherichia coli [5]; [27])
